System: mice
Experiment: Approximate acute toxicity after oral administration
Type: in vivo
Conditions: single dose, observation period 14 days; for animals died: 250 mg/kg
Protocol: The approximate acute toxicity of the test compounds was determined on groups of 5 mice after oral administration of a single dose (observation period: 14 days).

Compound | animals died | Approximate acute toxicity
CN(C)c1nc(N2CCNCC2)nc2nc(NCc3ccccc3)c(Cl)nc12 [E, 6-chloro-2-piperazino-4-dimethylamino-7-benzylamino-pteridine] | 0 out of 5 | > 250 mg/kg
CN(C)c1nc2nc(N3CCNCC3)nc(N(C)C)c2nc1Cl [B, 6-chloro-4,7-bis(dimethylamino)-2-piperazino-pteridine] | 0 out of 5 | > 250 mg/kg
CN(C)c1nc2nc(N3CCNCC3)nc(N(C)C)c2nc1SCc1ccccc1 [C, 6-benzylthio-4,7-bis-(dimethylamino)-2-piperazino-pteridine] | 0 out of 5 | > 250 mg/kg
CSc1nc2c(N3CC[S+]([O-])CC3)nc(N3CCNCC3)nc2nc1NCc1ccccc1 [D, 7-benzylamino-6-methylthio-4-(1-oxido-thiomorpholino)-2-piperazino-pteridine] | 0 out of 5 | > 250 mg/kg
c1ccc(CSc2nc3c(N4CCOCC4)nc(N4CCNCC4)nc3nc2N2CCOCC2)cc1 [Compound A, 6-benzylthio-4,7-dimorpholino-2-piperazino-pteridine] | 0 out of 5 | > 250 mg/kg
